Data set [1] is described as follows: Hygroscopicity of dabigatran (descriptive). Particulars: leads to formation of different hydrated forms. The data set is classed as physicochemical.
The nature of data set [2]: Solubility of dabigatran (descriptive). The data set is classed as physicochemical.

On to `[H]/N=C(/N)c1ccc(NCc2nc3cc(C(=O)N(CCC(=O)O)c4ccccn4)ccc3n2C)cc1` [dabigatran], for which, in data set [1], the Hygroscopicity result is given as “hygroscopic”. Further, in data set [2], the Solubility entry is “sparingly soluble”.

Source of the values: patent publication US9063163B2, “Lyophilised dabigatran” (Boehringer Ingelheim International GmbH, priority 2009, dated 2015).
